Measurements reported in patent US12378208B2, “N-substituted oseltamivir derivatives with antimicrobial activity” (THE HONG KONG POLYTECHNIC UNIVERSITY, priority 2019, dated 2025).

Biological target: NA from A/H3N2 (Influenza A virus, UniProt O91745)
Test: biochemical
Type: biochemical, seasonal A/H3N2

Sequence of NA from A/H3N2 (O91745 whole entry, looked up): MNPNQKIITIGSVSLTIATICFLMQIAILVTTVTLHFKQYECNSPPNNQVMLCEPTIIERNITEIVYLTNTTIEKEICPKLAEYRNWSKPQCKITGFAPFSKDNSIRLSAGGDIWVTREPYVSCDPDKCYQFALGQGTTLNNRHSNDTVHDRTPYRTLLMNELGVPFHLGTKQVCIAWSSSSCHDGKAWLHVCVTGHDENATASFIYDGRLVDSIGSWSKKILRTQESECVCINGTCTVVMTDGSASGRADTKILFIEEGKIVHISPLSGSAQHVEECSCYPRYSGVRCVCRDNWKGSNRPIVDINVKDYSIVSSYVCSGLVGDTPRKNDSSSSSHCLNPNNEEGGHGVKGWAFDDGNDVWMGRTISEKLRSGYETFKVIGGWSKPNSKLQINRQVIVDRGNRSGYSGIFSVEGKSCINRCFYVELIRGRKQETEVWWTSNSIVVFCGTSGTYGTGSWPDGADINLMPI

SMILES | % Inhibition (1 nM) [%] | Inhibition rate, 1 μM [%] | Inhibition rate, 10 μM [%] | further results
CCC(CC)O[C@@H]1C=C(C(=O)O)C[C@H](NCc2noc(-c3cccs3)n2)[C@H]1NC(C)=O [Compound S1, (3R,4R,5S)-4-acetamido-3-(pentan-3-yloxy)-5-(((5-(thiophen-2-yl)-1,2,4-oxadiazol-3-yl)methyl)amino)cyclohex-1-ene-1-carboxylic acid] | 0.0 ± 2.2 | – | – | –
CCC(CC)O[C@@H]1C=C(C(=O)O)C[C@H](NCc2noc(-c3ccc(C(F)(F)F)cc3)n2)[C@H]1NC(C)=O [Compound S2, (3R,4R,5S)-4-acetamido-3-(pentan-3-yloxy)-5-(((5-(4-(trifluoromethyl)phenyl)-1,2,4-oxadiazol-3-yl)methyl)amino)cyclohex-1-ene-1-carboxylic acid] | 8.0 ± 1.7 | – | – | –
CCC(CC)O[C@@H]1C=C(C(=O)O)C[C@H](NCc2noc(-c3ccc(F)cc3)n2)[C@H]1NC(C)=O [Compound S3, (3R,4R,5S)-4-acetamido-5-(((5-(4-fluorophenyl)-1,2,4-oxadiazol-3-yl)methyl)amino)-3-(pentan-3-yloxy)cyclohex-1-ene-1-carboxylic acid] | 0.0 ± 3.5 | – | – | –
CCC(CC)O[C@@H]1C=C(C(=O)O)C[C@H](NCc2noc(-c3ccccn3)n2)[C@H]1NC(C)=O [Compound S4] | 17.1 ± 2.0 | – | – | –
CCC(CC)O[C@@H]1C=C(C(=O)O)C[C@H](NCc2noc(-c3ccc(Br)cc3)n2)[C@H]1NC(C)=O [Compound S5, (3R,4R,5S)-4-acetamido-5-(((5-(4-bromophenyl)-1,2,4-oxadiazol-3-yl)methyl)amino)-3-(pentan-3-yloxy)cyclohex-1-ene-1-carboxylic acid] | 1.7 ± 2.1 | – | – | –
CCC(CC)O[C@@H]1C=C(C(=O)O)C[C@H](NCc2noc(-c3cccc([N+](=O)[O-])c3)n2)[C@H]1NC(C)=O [Compound S6, (3R,4R,5S)-4-acetamido-5-(((5-(3-nitrophenyl)-1,2,4-oxadiazol-3-yl)methyl)amino)-3-(pentan-3-yloxy)cyclohex-1-ene-1-carboxylic acid] | 18.4 ± 3.6 | – | – | –
CCC(CC)O[C@@H]1C=C(C(=O)O)C[C@H](NCc2noc(-c3ccccc3)n2)[C@H]1NC(C)=O [Compound S8, (3R,4R,5S)-4-acetamido-3-(pentan-3-yloxy)-5-(((5-phenyl-1,2,4-oxadiazol-3-yl)methyl)amino)cyclohex-1-ene-1-carboxylic acid] | 0.0 ± 2.0 | – | – | –
CCC(CC)O[C@@H]1C=C(C(=O)O)C[C@H](NCc2noc(-c3ccc4ccccc4c3)n2)[C@H]1NC(C)=O [Compound S9, (3R,4R,5S)-4-acetamido-5-(((5-(naphthalen-2-yl)-1,2,4-oxadiazol-3-yl)methyl)amino)-3-(pentan-3-yloxy)cyclohex-1-ene-1-carboxylic acid] | 1.5 ± 1.2 | – | – | –
CCC(CC)O[C@@H]1C=C(C(=O)O)C[C@H](NCc2noc(-c3ccccc3C)n2)[C@H]1NC(C)=O [Compound S10, (3R,4R,5S)-4-acetamido-3-(pentan-3-yloxy)-5-(((5-(o-tolyl)-1,2,4-oxadiazol-3-yl)methyl)amino)cyclohex-1-ene-1-carboxylic acid] | 0.5 ± 2.0 | – | – | –
CCC(CC)O[C@@H]1C=C(C(=O)O)C[C@H](NCc2noc(-c3cc(OC)c(OC)c(OC)c3)n2)[C@H]1NC(C)=O [Compound S11, (3R,4R,5S)-4-acetamido-3-(pentan-3-yloxy)-5-(((5-(3,4,5-trimethoxyphenyl)-1,2,4-oxadiazol-3-yl)methyl)amino)cyclohex-1-ene-1-carboxylic acid] | 3.5 ± 3.1 | – | – | –
CCC(CC)O[C@@H]1C=C(C(=O)O)C[C@H](NCc2noc(-c3ccc(Cl)cc3)n2)[C@H]1NC(C)=O [Compound S12, (3R,4R,5S)-4-Acetamido-5-(((5-(4-chlorophenyl)-1,2,4-oxadiazol-3-yl)methyl)amino)-3-(pentan-3-yloxy)cyclohex-1-ene-1-carboxylic acid] | 4.01 ± 5.9 | – | – | –
CCC(CC)O[C@@H]1C=C(C(=O)O)C[C@H](NCc2noc(-c3c(F)cccc3F)n2)[C@H]1NC(C)=O [Compound S13, (3R,4R,5S)-4-acetamido-5-(((5-(2,6-difluorophenyl)-1,2,4-oxadiazol-3-yl)methyl)amino)-3-(pentan-3-yloxy)cyclohex-1-ene-1-carboxylic acid] | 0.0 ± 2.6 | – | – | –
CCC(CC)O[C@@H]1C=C(C(=O)O)C[C@H](NCc2ccc(-c3ccc(OC)cc3)o2)[C@H]1NC(C)=O [Compound S14, (3R,4R,5S)-4-Acetamido-5-(((5-(4-methoxyphenyl)furan-2-yl)methyl)amino)-3-(pentan-3-yloxy)cyclohex-1-ene-1-carboxylic acid] | 14.7 ± 4.4 | – | – | –
CCC(CC)O[C@@H]1C=C(C(=O)O)C[C@H](NCc2ccc(-c3ccc(F)cc3)o2)[C@H]1NC(C)=O [Compound S15, (3R,4R,5S)-4-Acetamido-5-(((5-(4-fluorophenyl)furan-2-yl)methyl)amino)-3-(pentan-3-yloxy)cyclohex-1-ene-1-carboxylic acid] | 3.2 ± 3.7 | – | – | –
CCC(CC)O[C@@H]1C=C(C(=O)O)C[C@H](NCc2ccc(-c3ccccc3C)o2)[C@H]1NC(C)=O [Compound S16, (3R,4R,5S)-4-Acetamido-3-(pentan-3-yloxy)-5-(((5-(o-tolyl)furan-2-yl)methyl)amino)cyclohex-1-ene-1-carboxylic acid] | 8.4 ± 1.8 | – | – | –
CCC(CC)O[C@@H]1C=C(C(=O)O)C[C@H](NCc2ccc(-c3cc(F)cc(F)c3)o2)[C@H]1NC(C)=O [Compound S17, (3R,4R,5S)-4-Acetamido-5-(((5-(3,5-difluorophenyl)furan-2-yl)methyl)amino)-3-(pentan-3-yloxy)cyclohex-1-ene-1-carboxylic acid] | 3.7 ± 3.8 | – | – | –

SMILES | % Inhibition (1 nM) [%] | Inhibition rate, 1 μM [%] | Inhibition rate, 10 μM [%] | further results
CCC(CC)O[C@@H]1C=C(C(=O)O)C[C@H](NCc2ccc(-c3ccc(OC)c(OC)c3)o2)[C@H]1NC(C)=O [Compound S18, (3R,4R,5S)-4-Acetamido-5-(((5-(3,4-dimethoxyphenyl)furan-2-yl)methyl)amino)-3-(pentan-3-yloxy)cyclohex-1-ene-1-carboxylic acid] | 12.9 ± 1.2 | – | – | –
CCC(CC)O[C@@H]1C=C(C(=O)O)C[C@H](NCc2ccc(-c3cccc(Cl)c3)o2)[C@H]1NC(C)=O [Compound S19] | 5.5 ± 2.4 | – | – | –
CCC(CC)O[C@@H]1C=C(C(=O)O)C[C@H](NCc2ccc(-c3ccsc3)o2)[C@H]1NC(C)=O [Compound S20, (3R,4R,5S)-4-Acetamido-3-(pentan-3-yloxy)-5-(((5-(thiophen-3-yl)furan-2-yl)methyl)amino)cyclohex-1-ene-1-carboxylic acid] | 12.5 ± 2.3 | – | – | –
CCC(CC)O[C@@H]1C=C(C(=O)O)C[C@H](NCc2ccc(-c3cc(Cl)ccc3C)o2)[C@H]1NC(C)=O [Compound S21, (3R,4R,5S)-4-acetamido-5-(((5-(5-chloro-2-methylphenyl)furan-2-yl)methyl)amino)-3-(pentan-3-yloxy)cyclohex-1-ene-1-carboxylic acid] | 4.8 ± 1.1 | – | – | –
CCC(CC)O[C@@H]1C=C(C(=O)O)C[C@H](NCc2ccc(-c3cccc4c3oc3ccccc34)o2)[C@H]1NC(C)=O [Compound S23, (3R,4R,5S)-4-acetamido-5-(((5-(dibenzo[b,d]furan-4-yl)furan-2-yl)methyl)amino)-3-(pentan-3-yloxy)cyclohex-1-ene-1-carboxylic acid] | 10.9 ± 0.7 | – | – | –
CCC(CC)O[C@@H]1C=C(C(=O)O)C[C@H](NCc2cc(-c3ccccc3)on2)[C@H]1NC(C)=O [Compound S24] | 1.6 ± 0.4 | – | – | –
CCC(CC)O[C@@H]1C=C(C(=O)O)C[C@H](NC(=O)c2cnn(Cc3ccccc3)c2)[C@H]1NC(C)=O [OC-001] | – | 7.71 | 32.02 | –
CCC(CC)O[C@@H]1C=C(C(=O)O)C[C@H](NC(=O)c2cnn(Cc3cccc(OC)c3)c2)[C@H]1NC(C)=O [OC-002] | – | 6.12 | 23.37 | –
CCC(CC)O[C@@H]1C=C(C(=O)O)C[C@H](NC(=O)c2cnn(Cc3cccc(Cl)c3)c2)[C@H]1NC(C)=O [OC-003] | – | 5.74 | 23.88 | –
CCC(CC)O[C@@H]1C=C(C(=O)O)C[C@H](NC(=O)c2cnn(Cc3ccc(OC)cc3)c2)[C@H]1NC(C)=O [OC-004] | – | −0.21 | 26.79 | –
CCC(CC)O[C@@H]1C=C(C(=O)O)C[C@H](NC(=O)c2cnn(Cc3ccccc3Cl)c2)[C@H]1NC(C)=O [OC-005] | – | −1.46 | 18.88 | –
CCC(CC)O[C@@H]1C=C(C(=O)O)C[C@H](NC(=O)c2cnn(Cc3ccc(C(F)(F)F)cc3)c2)[C@H]1NC(C)=O [OC-006] | – | −2.25 | 21.72 | –
CCC(CC)O[C@@H]1C=C(C(=O)O)C[C@H](NC(=O)c2cnn(Cc3cccc([N+](=O)[O-])c3)c2)[C@H]1NC(C)=O [OC-007] | – | −5.33 | 12.26 | –
CCC(CC)O[C@@H]1C=C(C(=O)O)C[C@H](NC(=O)c2cc(-c3ccccc3)n[nH]2)[C@H]1NC(C)=O [OC-008] | – | 5.84 | 42.81 | –
CCC(CC)O[C@@H]1C=C(C(=O)O)C[C@H](NC(=O)c2cc(-c3ccc(C(F)(F)F)cc3)n[nH]2)[C@H]1NC(C)=O [OC-009] | – | 3.44 | 46.76 | –
CCC(CC)O[C@@H]1C=C(C(=O)O)C[C@H](NC(=O)c2cnn(-c3ccc(C)cc3)c2)[C@H]1NC(C)=O [OC-010] | – | 8.96 | 52.31 | IC50 (Table 4, Example 34): 43.9 µM
